The record followed here is patent US20250213701A1, “MEDICAMENT FOR TREATING HUMAN TUMOR BASED ON ERF3A-TARGETING PROTEOLYSIS MECHANISM” (SUZHOU DEGEN BIO-MEDICAL CO., LTD., priority 2022, published 2025).

Common to all, as to format: cell-based, human
One assay concerns PC-3 cells. Put plainly: Anti-proliferative toxicity against prostate cancer cell line PC-3 (CCK8). The note with it: 3 days. In outline:
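PC-3 cells (4000/well, pre-cultured 24 h) exposed in triplicate to compound at final 0.00001-1.0 μM for 3 days at 37 °C, 5% CO2. Viability read by CCK8, 1-4 h at 37 °C, absorbance at 450 nm.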

The subject of the next assay is VCaP cells. Put plainly: Anti-proliferative toxicity against prostate cancer cell line Vcap (CCK8). Particulars: 3 days, CCK8. The essentials: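 VCaP cells (DMEM, 10% FBS) seeded 20000 cells/well, cultured 72 h, then exposed in triplicate to compound at final well concentrations of 0.00001–0.16 μM for 3 days at 37 °C, 5% CO2. Viability by CCK8, 1–4 h at 37 °C, absorbance at 450 nm.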

A further assay deals with 22Rv1 cells. Put plainly: Anti-proliferative toxicity against prostate cancer cell line 22Rv1 (CCK8). The note with it: 3 days, CCK8. The essentials: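 22Rv1 cells pre-cultured for 48 h, then exposed to compounds at 0.00001-1.0 μM final, in triplicate, for 3 days. Viability read by CCK8 absorbance at 450 nm after 1-4 h at 37 °C.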

In general, IC50 refers to the midpoint of a concentration-inhibition curve. Take `C[C@]12C=CC(=O)N[C@@H]1CC[C@@H]1[C@@H]2CC[C@]2(C)[C@@H](C(=O)NCCCNc3ccc4c(c3)C(=O)N(C3CCC(=O)NC3=O)C4=O)CC[C@@H]12` (stereo partly drawn) [C4, N-(3-((5-(2-(3-(2,6-dioxopiperidine))-isoindole-1,3-dione))amino)propyl)-3-oxo-4-aza-5α-androst-1-ene-17β-carboxamide]: the IC50 with PC-3 cells (Homo sapiens, 72 h) is over 1 µM; in the assay on VCaP cells (Homo sapiens, 72 h), over 1 µM; in the assay with 22Rv1 cells (Homo sapiens, 72 h) it was over 1 µM.
With `C[C@]12C=CC(=O)N[C@@H]1CC[C@@H]1[C@@H]2CC[C@]2(C)[C@@H](C(=O)Nc3cccc(OCCCCCCCCNc4cccc5c4C(=O)N(C4CCC(=O)NC4=O)C5=O)c3)CC[C@@H]12` (stereo partly drawn) [C39, N-(3-((8-((4-(2-(3-(2,6-dioxopiperidine))-isoindole-1,3-dione))amino)octyl)oxy)phenyl)-3-oxo-4-aza-5α-androst-1-ene-17β-carboxamide], the IC50 in the assay with PC-3 cells (Homo sapiens, 72 h) is over 1 µM; with VCaP cells (Homo sapiens, 72 h), over 1 µM; in the assay on 22Rv1 cells (Homo sapiens, 72 h) it was over 1 µM.
With `C[C@]12C=CC(=O)N[C@@H]1CC[C@@H]1[C@@H]2CC[C@]2(C)[C@@H](C(=O)Nc3cccc(OCCCCCCCNc4cccc5c4C(=O)N(C4CCC(=O)NC4=O)C5=O)c3)CC[C@@H]12` (stereo partly drawn) [C37, N-(3-((7-((4-(2-(3-(2,6-dioxopiperidine))-isoindole-1,3-dione))amino)heptyl)oxy)phenyl)-3-oxo-4-aza-5α-androst-1-ene-17β-carboxamide], the IC50 in the assay with PC-3 cells (Homo sapiens, 72 h) is over 1 µM; in the assay with VCaP cells (Homo sapiens, 72 h), over 1 µM; in the assay with 22Rv1 cells (Homo sapiens, 72 h) it was over 1 µM.
Consider `C[C@]12C=CC(=O)N[C@@H]1CC[C@@H]1[C@@H]2CC[C@]2(C)[C@@H](C(=O)Nc3cccc(OCCCOc4cccc5c4C(=O)N(C4CCC(=O)NC4=O)C5=O)c3)CC[C@@H]12` (stereo partly drawn) [C46, N-(3-((3-((4-(2-(3-(2,6-dioxopiperidine))-isoindole-1,3-dione))oxy)propyl)oxy)phenyl)-3-oxo-4-aza-5α-androst-1-ene-17β-carboxamide], for which the IC50 with PC-3 cells (Homo sapiens, 72 h) was over 1 µM; in the assay with VCaP cells (Homo sapiens, 72 h), 0.0001 to 0.01 µM; in the assay on 22Rv1 cells (Homo sapiens, 72 h), 0.0001 to 0.01 µM.
On to `C[C@]12C=CC(=O)N[C@@H]1CC[C@@H]1[C@@H]2CC[C@]2(C)[C@@H](C(=O)Nc3cccc(N[C@H]4CCC[C@@H](Nc5cccc6c5C(=O)N(C5CCC(=O)NC5=O)C6=O)C4)c3)CC[C@@H]12` (stereo partly drawn) [C61, N-(3-(N—(N-(4-(2-(3-(2,6-dioxopiperidine))-isoindole-1,3-dione))-1S,3R-cyclohexanediamine))phenyl)-3-oxo-4-aza-5α-androst-1-ene-17β-carboxamide], for which the IC50 was over 1 µM in the assay with PC-3 cells (Homo sapiens, 72 h); over 1 µM in the assay with VCaP cells (Homo sapiens, 72 h); over 1 µM in the assay with 22Rv1 cells (Homo sapiens, 72 h).
In the case of `C[C@]12C=CC(=O)N[C@@H]1CC[C@@H]1[C@@H]2CC[C@]2(C)[C@@H](C(=O)Nc3ccc(OCCNc4ccc5c(c4)C(=O)N(C4CCC(=O)NC4=O)C5=O)cc3)CC[C@@H]12` (stereo partly drawn) [C16, N-(4-((2-((5-(2-(3-(2,6-dioxopiperidine))-isoindole-1,3-dione))amino)ethyl)oxy)phenyl)-3-oxo-4-aza-5α-androst-1-ene-17β-carboxamide], the IC50 with PC-3 cells (Homo sapiens, 72 h) was over 1 µM; in the assay with VCaP cells (Homo sapiens, 72 h), over 1 µM; with 22Rv1 cells (Homo sapiens, 72 h), over 1 µM.
For the compound `C[C@]12C=CC(=O)N[C@@H]1CC[C@@H]1[C@@H]2CC[C@]2(C)[C@@H](C(=O)Nc3cccc(OCCCCCNc4cccc5c4C(=O)N(C4CCC(=O)NC4=O)C5=O)c3)CC[C@@H]12` (stereo partly drawn) [C33, N-(3-((5-((4-(2-(3-(2,6-dioxopiperidine))-isoindole-1,3-dione))amino)pentyl)oxy)phenyl)-3-oxo-4-aza-5α-androst-1-ene-171β-carboxamide], the IC50 in the assay on PC-3 cells (Homo sapiens, 72 h) was over 1 µM; in the assay on VCaP cells (Homo sapiens, 72 h), over 1 µM; with 22Rv1 cells (Homo sapiens, 72 h) it was over 1 µM.
As for `C[C@]12C=CC(=O)N[C@@H]1CC[C@@H]1[C@@H]2CC[C@]2(C)[C@@H](C(=O)NCCCCCNc3ccc4c(c3)C(=O)N(C3CCC(=O)NC3=O)C4=O)CC[C@@H]12` (stereo partly drawn) [C8, N-(5-((5-(2-(3-(2,6-dioxopiperidine))-isoindole-1,3-dione))amino)pentyl)-3-oxo-4-aza-5α-androst-1-ene-17β-carboxamide], the IC50 in the assay on PC-3 cells (Homo sapiens, 72 h) is over 1 µM; in the assay on VCaP cells (Homo sapiens, 72 h) it was over 1 µM; in the assay with 22Rv1 cells (Homo sapiens, 72 h), over 1 µM.
For `CC1[C@H](Nc2cccc(NC(=O)[C@H]3CC[C@H]4[C@@H]5CC[C@H]6NC(=O)C=C[C@]6(C)[C@H]5CC[C@]34C)c2)CCC[C@H]1Nc1cccc2c1C(=O)N(C1CCC(=O)NC1=O)C2=O` (stereo partly drawn) [C69, N-(3-(N—(N-(4-(2-(3-(2,6-dioxopiperidine))-isoindole-1,3-dione))-2-methyl-1R,3R-cyclohexanediamine))phenyl)-3-oxo-4-aza-5α-androst-1-ene-17β-carboxamide], the IC50 was 0.01 to 1 µM in the assay on PC-3 cells (Homo sapiens, 72 h); 0.0001 to 0.01 µM in the assay with VCaP cells (Homo sapiens, 72 h); 0.0001 to 0.01 µM with 22Rv1 cells (Homo sapiens, 72 h).
With `C[C@]12C=CC(=O)N[C@@H]1CC[C@@H]1[C@@H]2CC[C@]2(C)[C@@H](C(=O)Nc3cccc(N4CCC(CNc5cccc6c5C(=O)N(C5CCC(=O)NC5=O)C6=O)CC4)c3)CC[C@@H]12` (stereo partly drawn) [C48, N-(3-(4-(((4-(2-(3-(2,6-dioxopiperidine))-isoindole-1,3-dione))amino)methyl)piperidine)phenyl)-3-oxo-4-aza-5α-androst-1-ene-17β-carboxamide], the concentration for half-maximal inhibition (IC50) is over 1 µM in the assay with PC-3 cells (Homo sapiens, 72 h); over 1 µM in the assay with VCaP cells (Homo sapiens, 72 h); over 1 µM with 22Rv1 cells (Homo sapiens, 72 h).
Turning to `C[C@]12C=CC(=O)N[C@@H]1CC[C@@H]1[C@@H]2CC[C@]2(C)[C@@H](C(=O)Nc3cccc(N4CCC(CN5CCN(c6cccc7c6C(=O)N(C6CCC(=O)NC6=O)C7=O)CC5)CC4)c3)CC[C@@H]12` (stereo partly drawn) [C44, 1-(4-(1-(3-(3-oxo-4-aza-5α-androst-1-ene-17β-carboxamido)phenyl)piperidine))methyl-4-(4-(2-(3-(2,6-dioxopiperidine))-isoindole-1,3-dione))piperazine], the IC50 in the assay on PC-3 cells (Homo sapiens, 72 h) is over 1 µM; in the assay with VCaP cells (Homo sapiens, 72 h), over 1 µM; with 22Rv1 cells (Homo sapiens, 72 h), over 1 µM.
As to `C[C@]12C=CC(=O)N[C@@H]1CC[C@@H]1[C@@H]2CC[C@]2(C)[C@@H](C(=O)Nc3cccc(OC4CCC(Nc5cccc6c5C(=O)N(C5CCC(=O)NC5=O)C6=O)C4)c3)CC[C@@H]12` (stereo partly drawn) [C57, N-(3-((3-((4-(2-(3-(2,6-dioxopiperidine))-isoindole-1,3-dione))amino)cyclopentyl)oxy)phenyl)-3-oxo-4-aza-5α-androst-1-ene-17β-carboxamide], the IC50 was over 1 µM in the assay on PC-3 cells (Homo sapiens, 72 h); 0.01 to 1 µM in the assay on VCaP cells (Homo sapiens, 72 h); 0.01 to 1 µM in the assay with 22Rv1 cells (Homo sapiens, 72 h).
For “N-(3-(N—(N-(4-(2-(3-(2,6-dioxopiperidine))-isoindole-1,3-dione))-6S-methyl-1S,3R-cyclohexanediamine))phenyl)-3-oxo-4-aza-5α-androst-1-ene-17β-carboxamide and N-(3-(N—(N-(4-(2-(3-(2,6-dioxopiperidine))-isoindole-1,3-dione))-4R-methyl-1R,3S-cyclohexanediamine))phenyl)-3-oxo-4-aza-5α-androst-1-ene-17β-carboxamide [C70]”, the IC50 in the assay on PC-3 cells lay in the range of 0.01 to 1 µM; in the assay on VCaP cells, 0.0001 to 0.01 µM; in the assay on 22Rv1 cells, 0.0001 to 0.01 µM.
Take `C[C@]12C=CC(=O)N[C@@H]1CC[C@@H]1[C@@H]2CC[C@]2(C)[C@@H](C(=O)NCCNc3ccc4c(c3)C(=O)N(C3CCC(=O)NC3=O)C4=O)CC[C@@H]12` (stereo partly drawn) [C2, N-(2-((5-(2-(3-(2,6-dioxopiperidine))-isoindole-1,3-dione))amino)ethyl)-3-oxo-4-aza-5α-androst-1-ene-17β-carboxamide]: the IC50 with PC-3 cells (Homo sapiens, 72 h) is over 1 µM; in the assay with VCaP cells (Homo sapiens, 72 h), over 1 µM; in the assay on 22Rv1 cells (Homo sapiens, 72 h) it was over 1 µM.
On to `C[C@]12C=CC(=O)N[C@@H]1CC[C@@H]1[C@@H]2CC[C@]2(C)[C@@H](C(=O)Nc3ccc(OCCCCCNc4cccc5c4C(=O)N(C4CCC(=O)NC4=O)C5=O)cc3)CC[C@@H]12` (stereo partly drawn) [C19, N-(4-((5-((4-(2-(3-(2,6-dioxopiperidine))-isoindole-1,3-dione))amino)pentyl)oxy)phenyl)-3-oxo-4-aza-5α-androst-1-ene-17β-carboxamide], for which the IC50 in the assay on PC-3 cells (Homo sapiens, 72 h) was over 1 µM; in the assay on VCaP cells (Homo sapiens, 72 h), over 1 µM; with 22Rv1 cells (Homo sapiens, 72 h), over 1 µM.
With “N-(3-(N—(N-(4-(2-(3-(2,6-dioxopiperidine))-isoindole-1,3-dione))-(1R,5S)-bicyclo[3,2,2]nonane-7R,8R-diamine))phenyl)-3-oxo-4-aza-5α-androst-1-ene-17β-carboxamide and N-(3-(N—(N-(4-(2-(3-(2,6-dioxopiperidine))-isoindole-1,3-dione))-(1S,5R)-bicyclo[3,2,2]nonane-7R,8R-diamine))phenyl)-3-oxo-4-aza-5α-androst-1-ene-17β-carboxamide [C73]”, the results for the IC50 in the assay with PC-3 cells, in the assay with VCaP cells and with 22Rv1 cells were over 1 µM, 0.01 to 1 µM and 0.01 to 1 µM, respectively.
Take `C[C@]12C=CC(=O)N[C@@H]1CC[C@@H]1[C@@H]2CC[C@]2(C)[C@@H](C(=O)Nc3cccc(N[C@H]4CCC[C@H](Nc5cccc6c5C(=O)N(C5CCC(=O)NC5=O)C6=O)C4)c3)CC[C@@H]12` (stereo partly drawn) [C60, N-(3-(N—(N-(4-(2-(3-(2,6-dioxopiperidine))-isoindole-1,3-dione))-1S,3S-cyclohexanediamine))phenyl)-3-oxo-4-aza-5α-androst-1-ene-17β-carboxamide]: the IC50 with PC-3 cells (Homo sapiens, 72 h) was over 1 µM; with VCaP cells (Homo sapiens, 72 h), 0.01 to 1 µM; with 22Rv1 cells (Homo sapiens, 72 h) it was 0.01 to 1 µM.
